In patent US20250228239A1, “MOLECULES HAVING PESTICIDAL UTILITY, AND INTERMEDIATES, COMPOSITIONS, AND PROCESSES, RELATED THERETO” (priority 2024, published 2025):

Tests used:
[1] = system: Beet Armyworm (Spodoptera exigua, LAPHEG); test: Bioassays on Beet Armyworm (BAW), 128-well diet tray assay; format: in vivo; conditions: Spodoptera exigua; Beet Armyworm, Table ABC / ABC-DP rating; read-out: BAW rating
Summary of the method: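 Larvae at second instar are exposed on dried, compound-treated diet (50 μg/cm^2, delivered in 90:10 acetone-water) in eight replicate wells. After five to seven days at 25° C., 14:10 light-dark, percent mortality in each well is scored and the eight wells averaged.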

[2] = system: Cabbage Looper (Trichoplusia ni, TRIPNI); test: Bioassays on Cabbage Looper (CL), 128-well diet tray assay; format: in vivo; conditions: Trichoplusia ni; Cabbage Looper, Table ABC / ABC-DP rating; read-out: CL rating
Summary of the method: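 Percent mortality, averaged across eight replicate wells, after second-instar larvae (1–5 per well) fed for five to seven days on diet dosed at 50 μg/cm^2. Compound was applied in acetone-water 90:10 and dried; trays kept vented at 25° C under 14:10 photoperiod.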

CCNC(=O)c1cc(NC(=O)[C@H]2[C@H](c3ccc(F)c(Cl)c3)C2(Cl)Cl)cc(Cl)c1F (relative stereo) [F2047, trans-3-Chloro-5-(2,2-dichloro-3-(3-chloro-4-fluorophenyl)cyclopropane-1-carboxamido)-N-ethyl-2-fluorobenzamide]
pest or weed control at 50 µg/cm2 [1]: 50 to 100%
pest or weed control at 50 µg/cm2 [2]: 50 to 100%

O=C(NCCCCl)c1cc(NC(=O)[C@H]2[C@H](c3ccc(F)c(Cl)c3)C2(Cl)Cl)cc(Cl)c1F (relative stereo) [F2048, trans-3-Chloro-N-(3-chloropropyl)-5-(2,2-dichloro-3-(3-chloro-4-fluorophenyl)cyclopropane-1-carboxamido)-2-fluorobenzamide]
pest or weed control at 50 µg/cm2 [1]: 50 to 100%
pest or weed control at 50 µg/cm2 [2]: 50 to 100%

O=C(NCC(F)(F)F)c1cc(NC(=O)[C@H]2[C@H](c3ccc(F)c(Cl)c3)C2(Cl)Cl)cc(F)c1F (relative stereo) [F2049, trans-5-(2,2-Dichloro-3-(3-chloro-4-fluorophenyl)cyclopropane-1-carboxamido)-2,3-difluoro-N-(2,2,2-trifluoroethyl)benzamide]
pest or weed control at 50 µg/cm2 [1]: 50 to 100%
pest or weed control at 50 µg/cm2 [2]: 50 to 100%

O=C(NCC(F)(F)C(F)(F)F)c1cc(NC(=O)[C@H]2[C@H](c3ccc(F)c(Cl)c3)C2(Cl)Cl)cc(F)c1F (relative stereo) [F2050, trans-5-(2,2-Dichloro-3-(3-chloro-4-fluorophenyl)cyclopropane-1-carboxamido)-2,3-difluoro-N-(2,2,3,3,3-pentafluoropropyl)benzamide]
pest or weed control at 50 µg/cm2 [1]: 50 to 100%
pest or weed control at 50 µg/cm2 [2]: 50 to 100%

CCNC(=O)c1cc(NC(=O)[C@H]2[C@H](c3ccc(F)c(Cl)c3)C2(Cl)Cl)cc(F)c1F (relative stereo) [F2051, trans-5-(2,2-Dichloro-3-(3-chloro-4-fluorophenyl)cyclopropane-1-carboxamido)-N-ethyl-2,3-difluorobenzamide]
pest or weed control at 50 µg/cm2 [1]: 50 to 100%
pest or weed control at 50 µg/cm2 [2]: 50 to 100%

O=C(NCCCCl)c1cc(NC(=O)[C@H]2[C@H](c3ccc(F)c(Cl)c3)C2(Cl)Cl)cc(F)c1F (relative stereo) [F2052, trans-N-(3-Chloropropyl)-5-(2,2-dichloro-3-(3-chloro-4-fluorophenyl)cyclopropane-1-carboxamido)-2,3-difluorobenzamide]
pest or weed control at 50 µg/cm2 [1]: 50 to 100%
pest or weed control at 50 µg/cm2 [2]: 50 to 100%

CCNC(=O)c1cc(NC(=O)[C@H]2[C@H](c3ccc(F)c(Cl)c3)C2(Cl)Cl)cc(C(F)(F)F)c1Cl (relative stereo) [F2053, trans-2-Chloro-5-(2,2-dichloro-3-(3-chloro-4-fluorophenyl)cyclopropane-1-carboxamido)-N-ethyl-3-(trifluoromethyl)benzamide]
pest or weed control at 50 µg/cm2 [1]: 50 to 100%
pest or weed control at 50 µg/cm2 [2]: 50 to 100%

COc1c(Cl)cc(NC(=O)[C@H]2[C@H](c3ccc(F)c(Cl)c3)C2(Cl)Cl)cc1C(=O)NCC(F)(F)F (relative stereo) [F2061, trans-3-Chloro-5-(2,2-dichloro-3-(3-chloro-4-fluorophenyl)cyclopropane-1-carboxamido)-2-methoxy-N-(2,2,2-trifluoroethyl)benzamide]
pest or weed control at 50 µg/cm2 [1]: 50 to 100%
pest or weed control at 50 µg/cm2 [2]: 50 to 100%

COc1c(Cl)cc(NC(=O)[C@H]2[C@H](c3ccc(F)c(Cl)c3)C2(Cl)Cl)cc1C(=O)NCC(F)(F)C(F)(F)F (relative stereo) [F2062, trans-3-Chloro-5-(2,2-dichloro-3-(3-chloro-4-fluorophenyl)cyclopropane-1-carboxamido)-2-methoxy-N-(2,2,3,3,3-pentafluoropropyl)benzamide]
pest or weed control at 50 µg/cm2 [1]: 50 to 100%
pest or weed control at 50 µg/cm2 [2]: 50 to 100%

O=C(NNc1ccc(Cl)c(C(F)(F)F)c1)c1cc(NC(=O)[C@H]2[C@H](c3cc(Cl)cc(Cl)c3)C2(Cl)Cl)ccc1Cl (relative stereo) [F2501, trans-2,2-dichloro-N-(4-chloro-3-(2-(4-chloro-3-(trifluoromethyl)phenyl)hydrazine-1-carbonyl)phenyl)-3-(3,5-dichlorophenyl)cyclopropane-1-carboxamide]
pest or weed control at 50 µg/cm2 [1]: 50 to 100%
pest or weed control at 50 µg/cm2 [2]: 50 to 100%

CN(NC(=O)c1cc(NC(=O)[C@H]2[C@H](c3cc(Cl)cc(Cl)c3)C2(Cl)Cl)ccc1Cl)c1ccccn1 (relative stereo) [F2503, trans-2,2-Dichloro-N-(4-chloro-3-(2-methyl-2-(pyridin-2-yl)hydrazine-1-carbonyl)phenyl)-3-(3,5-dichlorophenyl)cyclopropane-1-carboxamide]
pest or weed control at 50 µg/cm2 [1]: 50 to 100%
pest or weed control at 50 µg/cm2 [2]: 50 to 100%

O=C(CC(F)(F)F)NNC(=O)c1cc(NC(=O)[C@H]2[C@H](c3cc(Cl)cc(Cl)c3)C2(Cl)Cl)ccc1Cl (relative stereo) [F2516, trans-2,2-Dichloro-N-(4-chloro-3-(2-(3,3,3-trifluoropropanoyl)hydrazine-1-carbonyl)phenyl)-3-(3,5-dichlorophenyl)cyclopropane-1-carboxamide]
pest or weed control at 50 µg/cm2 [1]: 50 to 100%
pest or weed control at 50 µg/cm2 [2]: 50 to 100%

O=C(NNC(=O)C1CC1(F)F)c1cc(NC(=O)[C@H]2[C@H](c3cc(Cl)cc(Cl)c3)C2(Cl)Cl)ccc1Cl (relative stereo) [F2517, trans-2,2-Dichloro-N-(4-chloro-3-(2-(2,2-difluorocyclopropane-1-carbonyl)hydrazine-1-carbonyl)phenyl)-3-(3,5-dichlorophenyl)cyclopropane-1-carboxamide]
pest or weed control at 50 µg/cm2 [1]: 50 to 100%
pest or weed control at 50 µg/cm2 [2]: 50 to 100%

CN(NC(=O)c1cc(NC(=O)[C@H]2[C@H](c3cc(Cl)cc(Cl)c3)C2(Cl)Cl)ccc1Cl)C(=O)C(F)(F)F (relative stereo) [F2523, trans-2,2-Dichloro-N-(4-chloro-3-(2-methyl-2-(2,2,2-trifluoroacetyl)hydrazine-1-carbonyl)phenyl)-3-(3,5-dichlorophenyl)cyclopropane-1-carboxamide]
pest or weed control at 50 µg/cm2 [1]: 50 to 100%
pest or weed control at 50 µg/cm2 [2]: 50 to 100%

CN(C)CC(=O)N(C)NC(=O)c1cc(NC(=O)[C@H]2[C@H](c3cc(Cl)cc(Cl)c3)C2(Cl)Cl)ccc1Cl (relative stereo) [F2526, trans-2,2-Dichloro-N-(4-chloro-3-(2-(dimethylglycyl)-2-methylhydrazine-1-carbonyl)phenyl)-3-(3,5-dichlorophenyl)cyclopropane-1-carboxamide]
pest or weed control at 50 µg/cm2 [1]: 50 to 100%
pest or weed control at 50 µg/cm2 [2]: 50 to 100%

CN(NC(=O)c1cc(NC(=O)[C@H]2[C@H](c3cc(Cl)cc(Cl)c3)C2(Cl)Cl)ccc1Cl)C(=O)c1ccccc1 (relative stereo) [F2527, trans-N-(3-(2-Benzoyl-2-methylhydrazine-1-carbonyl)-4-chlorophenyl)-2,2-dichloro-3-(3,5-dichlorophenyl)cyclopropane-1-carboxamide]
pest or weed control at 50 µg/cm2 [1]: 50 to 100%
pest or weed control at 50 µg/cm2 [2]: 50 to 100%

O=C(CC1CC1)NNC(=O)c1cc(NC(=O)[C@H]2[C@H](c3cc(Cl)cc(Cl)c3)C2(Cl)Cl)ccc1Cl (relative stereo) [F2528, trans-2,2-Dichloro-N-(4-chloro-3-(2-(2-cyclopropylacetyl)hydrazine-1-carbonyl)phenyl)-3-(3,5-dichlorophenyl)cyclopropane-1-carboxamide]
pest or weed control at 50 µg/cm2 [1]: 50 to 100%
pest or weed control at 50 µg/cm2 [2]: 50 to 100%

COCC(=O)NNC(=O)c1cc(NC(=O)[C@H]2[C@H](c3cc(Cl)cc(Cl)c3)C2(Cl)Cl)ccc1Cl (relative stereo) [F2529, trans-2,2-Dichloro-N-(4-chloro-3-(2-(2-methoxyacetyl)hydrazine-1-carbonyl)phenyl)-3-(3,5-dichlorophenyl)cyclopropane-1-carboxamide]
pest or weed control at 50 µg/cm2 [1]: 50 to 100%
pest or weed control at 50 µg/cm2 [2]: 50 to 100%

O=C(NNC(=O)C(C(F)(F)F)C(F)(F)F)c1cc(NC(=O)[C@H]2[C@H](c3cc(Cl)cc(Cl)c3)C2(Cl)Cl)ccc1Cl (relative stereo) [F2532, trans-2,2-Dichloro-N-(4-chloro-3-(2-(3,3,3-trifluoro-2-(trifluoromethyl)propanoyl)hydrazine-1-carbonyl)phenyl)-3-(3,5-dichlorophenyl)cyclopropane-1-carboxamide]
pest or weed control at 50 µg/cm2 [1]: 50 to 100%
pest or weed control at 50 µg/cm2 [2]: 50 to 100%

CN(NC(=O)c1cc(NC(=O)[C@H]2[C@H](c3cc(Cl)cc(Cl)c3)C2(Cl)Cl)ccc1Cl)C(=O)CC(F)(F)F (relative stereo) [F2533, trans-2,2-Dichloro-N-(4-chloro-3-(2-methyl-2-(3,3,3-trifluoropropanoyl)hydrazine-1-carbonyl)phenyl)-3-(3,5-dichlorophenyl)cyclopropane-1-carboxamide]
pest or weed control at 50 µg/cm2 [1]: 50 to 100%
pest or weed control at 50 µg/cm2 [2]: 50 to 100%

CN(NC(=O)c1cc(NC(=O)[C@H]2[C@H](c3cc(Cl)cc(Cl)c3)C2(Cl)Cl)ccc1Cl)C(=O)C1CC1(F)F (relative stereo) [F2534, trans-2,2-Dichloro-N-(4-chloro-3-(2-(2,2-difluorocyclopropane-1-carbonyl)-2-methylhydrazine-1-carbonyl)phenyl)-3-(3,5-dichlorophenyl)cyclopropane-1-carboxamide]
pest or weed control at 50 µg/cm2 [1]: 50 to 100%
pest or weed control at 50 µg/cm2 [2]: 50 to 100%

O=C(NCC(F)(F)F)NNC(=O)c1cc(NC(=O)[C@H]2[C@H](c3cc(Cl)cc(Cl)c3)C2(Cl)Cl)ccc1Cl (relative stereo) [F2535, trans-2-(2-chloro-5-(2,2-dichloro-3-(3,5-dichlorophenyl)cyclopropane-1-carboxamido)benzoyl)-N-(2,2,2-trifluoroethyl)hydrazine-1-carboxamide]
pest or weed control at 50 µg/cm2 [1]: 50 to 100%
pest or weed control at 50 µg/cm2 [2]: 50 to 100%
